Assay results as given in patent US20050101595A1, “N-containing cycloalkyl-substituted amino-thiazole derivatives and pharmaceutical compositions for inhibiting cell proliferation and methods for their use” (PFIZER INC., priority 2003, published 2005).
Structures can show the parent of a compound that is named as a salt. Where two headings read alike, the source gives them in different places.

How the values were obtained:
HCT-116 cell line = experiment: Inhibition of cell growth, tetrazolium salt (MTT) assay; format: cell-based; details: for HCT-116 % Inhibition at 0.25 μM: 0.25 μM compound; for IC50: Homo sapiens, HCT-116, 120 h, MTT, three to five days, read-out: HCT-116 IC50
Summary of the method: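 HCT-116 cells in McCoy's 5A medium received compound 4 h after plating (0.5% v/v DMSO) and were incubated three to five days at 37° C, 5% CO2. MTT (0.2 mg/mL final) then added for 4 h; DMSO-solubilized formazan read at 540 nm against 0.5% DMSO-treated controls.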

[1] = molecular target: human CDK4 and genetically truncated (1-264) cyclin D3 (Homo sapiens, UniProt P11802); experiment: Inhibition of CDK4/Cyclin D Retinoblastoma Kinase Activity; format: biochemical; details: for Ki: apparent Ki, CDK4/truncated cyclin D3, Rb fragment substrate, 25 μM ATP
Description: Cyclin-dependent kinase activity was measured by quantifying the enzyme-catalyzed, time-dependent incorporation of radioactive phosphate from [^32P]ATP or [^33P]ATP into a protein substrate. Unless noted otherwise, assays were performed in 96-well plates in a total volume of 50 μL, in the presence of 10 mM HEPES (N-[2-hydroxyethyl]piperazine-N′-[2-ethanesulfonic acid]) (pH 7.4), 10 mM MgCl2, 25 μM adenosine triphosphate (ATP), 1 mg/mL ovalbumin, 5 μg/mL leupeptin, 1 mM dithiothreitol, 10 mM β-glycerophosphate, 0.1 mM sodium vanadate, 1 mM sodium fluoride, 2.5 mM ethylene glycol-bis(β-aminoethyl ether)-N,N,N′N′-tetraacetic acid (EGTA), 2% (v/v) dimethylsulfoxide, and 0.03-0.4 μCi [^32/33P]ATP per reaction. Reactions were initiated with enzyme, incubated at 30° C., and terminated after 20 minutes by the addition of ethylenediaminetetraacetic acid (EDTA) to 250 mM. The phosphorylated substrate was then captured on a nitrocellulose or phosphocellulose membrane using a 96-well filtration manifold, and unincorporated radioactivity was removed by repeated washing with 0.85% phosphoric acid. Radioactivity was quantified by exposing the dried membranes to a phosphorimager.
Inhibition was measured relative to control wells that contained all reaction components including 2% (v/v) DMSO but no compound, after subtraction of background radioactivity measured in the absence of enzyme. Apparent Ki values of discrete compounds were measured by assaying enzyme activity in the presence of different inhibitor compound concentrations and subtracting the background radioactivity measured in the absence of enzyme. The kinetic parameters (kcat, Km for ATP) were measured for each enzyme under the usual assay conditions by determining the dependence of initial rates on ATP concentration. Inhibition data were fit to an equation for competitive inhibition using Kaleidagraph (Synergy Software), or were fit to an equation for competitive tight-binding inhibition using the software KineTic (BioKin, Ltd.).
Inhibition of CDK4/Cyclin D Retinoblastoma Kinase Activity:
A complex of human CDK4 and genetically truncated (1-264) cyclin D3 was purified using traditional biochemical chromatographic techniques from insect cells that had been co-infected with the corresponding baculovirus expression vectors (see e.g., Meijer and Kim, “Chemical Inhibitors of Cyclin-Dependent Kinases,” Methods in Enzymol,. vol. 283 (1997), pp. 113-128.). The enzyme complex (5 nM) was assayed with 0.3-0.5 μg of purified recombinant retinoblastoma protein fragment (Rb) as a substrate. The engineered Rb fragment (residues 386-928 of the native retinoblastoma protein; 62.3 kDa) contains the majority of the phosphorylation sites found in the native 106-kDa protein, as well as a tag of six histidine residues for ease of purification. Phosphorylated Rb substrate was captured by microfiltration on a nitrocellulose membrane and quantified using a phosphorimager as described above. For measurement of tight-binding inhibitors, the assay duration was extended to 60 minutes, during which the time-dependence of product formation was linear and initial rate conditions were met.

CDK2/Cyclin A = CDK2/Cyclin A (Homo sapiens, UniProt P24941); experiment: Inhibition of CDK2/Cyclin A Retinoblastoma Kinase Activity; format: biochemical; details: for Ki: apparent Ki, CDK2/proteolyzed cyclin A, Rb fragment substrate, 25 μM ATP
Summary of the method: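 CDK2 (10 or 19 nM), insect-cell expressed, gel-filtration purified with truncated cyclin A; Rb fragment substrate; 25 μM ATP; 10 mM HEPES pH 7.4, 10 mM MgCl2; 30° C, 60 or 75 min; EDTA stop; phosphocellulose/nitrocellulose capture, phosphorimager. % inhibition vs DMSO control, no-enzyme background subtracted.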

[2] = 0.1 μM compound, HCT-116, Table 4
[3] = 0.1 μM compound, HCT-116, Table 3

Sequence of human CDK4 and genetically truncated (1-264) cyclin D3 (P11802 whole entry, the tested form may be a part): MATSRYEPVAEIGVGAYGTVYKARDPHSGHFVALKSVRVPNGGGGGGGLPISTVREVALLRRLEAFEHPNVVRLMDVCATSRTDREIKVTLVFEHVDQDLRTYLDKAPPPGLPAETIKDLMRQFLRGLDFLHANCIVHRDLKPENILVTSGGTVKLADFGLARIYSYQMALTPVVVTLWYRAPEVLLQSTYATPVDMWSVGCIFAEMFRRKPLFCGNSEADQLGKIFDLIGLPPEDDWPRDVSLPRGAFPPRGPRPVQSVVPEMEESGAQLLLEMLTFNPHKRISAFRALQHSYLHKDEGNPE
Sequence of human CDK4 and genetically truncated (1-264) cyclin D3 (P30281 1-264 partner): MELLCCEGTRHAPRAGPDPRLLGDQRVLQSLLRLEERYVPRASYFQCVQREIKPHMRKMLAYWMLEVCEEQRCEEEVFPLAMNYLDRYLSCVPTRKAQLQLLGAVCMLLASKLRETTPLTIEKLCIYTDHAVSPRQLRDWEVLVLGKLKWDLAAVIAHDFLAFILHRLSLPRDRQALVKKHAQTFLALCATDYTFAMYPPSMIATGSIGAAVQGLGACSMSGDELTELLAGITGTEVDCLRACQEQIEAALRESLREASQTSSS

For `COCC(=O)N1CCC(Nc2nc(N)c(C(=O)c3c(F)cccc3F)s2)CC1` [Example Q42], the “HCT-116 % Inhibition at 0.1 μM” value (HCT-116 cell line; [2]) was 3%, the “HCT-116 % Inhibition at 0.25 μM” value (HCT-116 cell line; HCT-116, Table 4) was 30% and the “CDK4 % Inhibition at 0.03 μM” value ([1]; 0.03 μM compound, Table 4) was 20%. For the same compound, the “CDK2 % Inhibition at 0.03 μM” value (CDK2/Cyclin A; 0.03 μM compound, Table 4) was −4%.

For `COC(=O)CCc1ccc(S(=O)(=O)N2CCC(Nc3nc(N)c(C(=O)c4c(F)cccc4F)s3)CC2)cc1` [Example F46], the IC50 (HCT-116 cell line; first HCT-116 column (c4)) was 790 nM, the IC50 (HCT-116 cell line; second HCT-116 column (c5)) was > 5000 nM and the Ki [1] was 2 nM. The Ki (CDK2/Cyclin A) was 0.8 nM.

In the case of `Nc1nc(NC2CCN(S(=O)(=O)c3cccc(Br)c3)CC2)sc1C(=O)c1c(F)cccc1F` [Example P46], the “HCT-116 % Inhibition at 0.1 μM” value (HCT-116 cell line; [3]) is reported as 10%, the “HCT-116 % Inhibition at 0.25 μM” value (HCT-116 cell line; HCT-116, Table 3) is reported as 20% and the “CDK4 % Inhibition at 0.03 μM” value ([1]; 0.03 μM compound, Table 3) is reported as 68%. The “CDK2 % Inhibition at 0.03 μM” value (CDK2/Cyclin A; 0.03 μM compound, Table 3) was 59%.

`Nc1nc(NC2CCN(S(=O)(=O)c3cc(S(=O)(=O)c4ccccc4)cs3)CC2)sc1C(=O)c1c(F)cccc1F` [Example P41] was tested, and the “HCT-116 % Inhibition at 0.1 μM” value (HCT-116 cell line; [3]) was 0%, the “HCT-116 % Inhibition at 0.25 μM” value (HCT-116 cell line; HCT-116, Table 3) was 26% and the “CDK4 % Inhibition at 0.03 μM” value ([1]; 0.03 μM compound, Table 3) was 66%. For the same compound, the “CDK2 % Inhibition at 0.03 μM” value (CDK2/Cyclin A; 0.03 μM compound, Table 3) was 80%.

`CN1CCC(c2ccc(S(=O)(=O)N3CCC(Nc4nc(N)c(C(=O)c5c(F)cccc5F)s4)CC3)cc2)C1` (stereo not drawn) [Example F25, 1-(4-Amino-2-[1-[4-(1-methyl-pyrrolidin-3-yl)-benzenesulfonyl]-piperidin-4-ylamino]-thiazol-5-yl}-1-(2,6-difluoro-phenyl)-methanone Dihydrochloride] gave an IC50 (HCT-116 cell line; first HCT-116 column (c4)) of 80 nM, an IC50 (HCT-116 cell line; second HCT-116 column (c5)) of 300 nM and a Ki [1] of 0.93 nM. For the same compound, the Ki (CDK2/Cyclin A) was 1.5 nM.

`Nc1nc(NC2CCN(C(=O)c3ccc(Cl)cc3)CC2)sc1C(=O)c1c(F)cccc1F` [Example R144] was tested, and the “HCT-116 % Inhibition at 0.1 μM” value (HCT-116 cell line; HCT-116 cells, at 0.1 μM) was 0%, the “HCT-116 5 Inhibition at 0.25 μM” value (HCT-116 cell line; HCT-116 cells) was 38 and the “CDK4 % Inhibition at 0.03 μM” value ([1]; at 0.03 μM) was 46%. The “CDK2 % Inhibition at 0.03 μM” value (CDK2/Cyclin A; at 0.03 μM) was 20%.

With `Cn1cncc1C(=O)N1CCC(Nc2nc(N)c(C(=O)c3c(F)cccc3F)s2)CC1` [Example C15, 1-(4-Amino-2-{1-[1-(3-methyl-3H-imidazol-4-yl)-methanoyl]-piperidin-4-ylamino}-thiazol-5-y)-1-(2,6-difluoro-phenyl)-methanone] the IC50 (HCT-116 cell line; first HCT-116 column (c4)) was > 5000 nM, the IC50 (HCT-116 cell line; second HCT-116 column (c5)) was > 5000 nM and the Ki [1] was 51 nM. It also gave a Ki (CDK2/Cyclin A) of 150 nM.

For `Cc1nnsc1C(=O)N1CCC(Nc2nc(N)c(C(=O)c3c(F)cccc3F)s2)CC1` [Example R70], the “HCT-116 % Inhibition at 0.1 μM” value (HCT-116 cell line; HCT-116 cells, at 0.1 μM) was 0%, the “HCT-116 5 Inhibition at 0.25 μM” value (HCT-116 cell line; HCT-116 cells) was 44 and the “CDK4 % Inhibition at 0.03 μM” value ([1]; at 0.03 μM) was 12%. For the same compound, the “CDK2 % Inhibition at 0.03 μM” value (CDK2/Cyclin A; at 0.03 μM) was 21%.

With `CCCCC(CC)COC(=O)N1CCC(Nc2nc(N)c(C(=O)c3c(F)cccc3F)s2)CC1` (stereo not drawn) [Example Q7] the “HCT-116 % Inhibition at 0.1 μM” value (HCT-116 cell line; [2]) was 5%, the “HCT-116 % Inhibition at 0.25 μM” value (HCT-116 cell line; HCT-116, Table 4) was 39% and the “CDK4 % Inhibition at 0.03 μM” value ([1]; 0.03 μM compound, Table 4) was 5%. The “CDK2 % Inhibition at 0.03 μM” value (CDK2/Cyclin A; 0.03 μM compound, Table 4) was −42%.

`Nc1nc(NC2CCN(C(=O)C3CC3)CC2)sc1C(=O)c1c(F)cccc1F` [Example Q54] was tested, and the “HCT-116 % Inhibition at 0.1 μM” value (HCT-116 cell line; [2]) was 0%, the “HCT-116 % Inhibition at 0.25 μM” value (HCT-116 cell line; HCT-116, Table 4) was 35% and the “CDK4 % Inhibition at 0.03 μM” value ([1]; 0.03 μM compound, Table 4) was 18%. For the same compound, the “CDK2 % Inhibition at 0.03 μM” value (CDK2/Cyclin A; 0.03 μM compound, Table 4) was −2%.

In the case of `Nc1nc(NC2CCN(C(=O)c3ccc(Cl)c(Cl)c3)CC2)sc1C(=O)c1c(F)cccc1F` [Example R133], the “HCT-116 % Inhibition at 0.1 μM” value (HCT-116 cell line; HCT-116 cells, at 0.1 μM) is reported as 5%, the “HCT-116 5 Inhibition at 0.25 μM” value (HCT-116 cell line; HCT-116 cells) is reported as 56 and the “CDK4 % Inhibition at 0.03 μM” value ([1]; at 0.03 μM) is reported as 52%. The “CDK2 % Inhibition at 0.03 μM” value (CDK2/Cyclin A; at 0.03 μM) was 21%.

`Nc1nc(NC2CCN(C(=O)c3cccc4ccccc34)CC2)sc1C(=O)c1c(F)cccc1F` [Example Q62] was tested, and the “HCT-116 % Inhibition at 0.1 μM” value (HCT-116 cell line; [2]) was 12%, the “HCT-116 % Inhibition at 0.25 μM” value (HCT-116 cell line; HCT-116, Table 4) was 53% and the “CDK4 % Inhibition at 0.03 μM” value ([1]; 0.03 μM compound, Table 4) was 49%. For the same compound, the “CDK2 % Inhibition at 0.03 μM” value (CDK2/Cyclin A; 0.03 μM compound, Table 4) was 33%.
